Target: T1, recombinant human deoxyuridine nucleotidohydrolase (dUTPase) (Homo sapiens, UniProt P33316)
T1 construct: made in house
T1 sequence (P33316 1-164 isoform P33316-2): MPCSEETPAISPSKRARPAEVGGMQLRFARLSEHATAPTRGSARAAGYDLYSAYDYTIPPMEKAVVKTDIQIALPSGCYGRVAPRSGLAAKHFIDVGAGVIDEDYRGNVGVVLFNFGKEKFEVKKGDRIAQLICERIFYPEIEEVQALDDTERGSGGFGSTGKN
Test: fluorescence-based dUTPase inhibition assay (DNA polymerase-based dUTP detection)
Format: biochemical
Conditions: mean across three concentrations, typically 100, 50 and 25 μmol/L, compared to the in-run positive control
Excerpt: Recombinant human deoxyuridine nucleotidohydrolase (dUTPase) is expressed and purified as described in Ladner R D, Carr S A, Huddleston M J, McNulty D E, Caradonna S J. J Biol Chem. 1996 Mar. 29; 271(13):7752-7. All drugs stocks are aliquoted and diluted as appropriate prior to use. The oligonucelotide primer, templates and fluorophore- and quencher-labeled detection probes are synthesized by Integrated DNA Technologies (Coralville, Iowa), subjected to polyacrylamide gel electrophoresis purification and reconstituted in Omnipur sterile nuclease-free water (EMD Chemicals USA, Gibbstown N.J.) at a stock concentration of 100 μmol/L. The two non-emissive (dark) quenching molecules incorporated into the detection probes include the Iowa black fluorescein quencher (IBFQ; absorption max 531 nm) and ZEN (non-abbreviation; absorption max 532 nm). The fluorescent label utilized is 6-FAM (5′-carboxyfluorescein; excitation max.=494 nm, emission max.=520 nm). Probes are further diluted to a working stock of 10 μmol/L and aliquoted to avoid repeated freeze/thaw cycles. AmpliTaq Gold DNA Polymerase, GeneAmp 10×PCR Buffer 2, MgCl2 and MicroAmp Optical 96-well Reaction Plates are purchased from Applied Biosystems (Carlsbad, Calif.). dNTPs are purchased individually at stock concentrations of 100 mmol/L from New England Biolabs at HPLC-certified >99% purity (Ipswich, Mass.).
Reaction mixtures contained primer, probe and template at an equimolar final concentration of 0.4 μmol/L. Magnesium chloride (MgCl2) is included at a final concentration of 2 mmol/L. Non-limiting dNTPs are included in the reaction mix in excess at a final concentration of 100 μmol/L (dUTP/dTTP is excluded). AmpliTaq Gold DNA polymerase is added at 0.875 U/reaction, 2.5 μl of 10×PCR buffer 2 added and nuclease-free ddH2O added to a final reaction volume of 25 μl. For dUTP inhibition analysis, the volume of ddH2O is further modified to accommodate an additional 1 μl of dUTPase (10 ng/μl) and 1 μl of inhibitor or DMSO control. Thermal profiling and fluorescence detection is performed using a customized thermal program on board a Roche Lightcycler LC480 Instrument II. For analysis of dNTPs, the thermal profile consisted of an 8 min 37° C. step followed by a 10 min 95° C. step to ‘hot-start’ the Taq polymerase and a primer extension time of up to 30 min at 60° C. Raw fluorescence spectra for 6-FAM is measured at specified time intervals to follow assay progression on board a Roche LightCycler 480 Software Version 1.5 and exported and analyzed in Microsoft Excel (Microsoft, Redmond Wash.) and Prism (GraphPad Software, La Jolla Calif.). Fluorescence values for blank reactions (limiting dNTP omitted) are subtracted to give normalized fluorescence units (NFU) to account for background fluorescence.
Test compounds were screened in a fluorescence-based assay. The assay employed a DNA polymerase-based approach utilizing an oligonucleotide template with 3 distinct regions: a 3′ primer binding region, a mid-template dUTP/thymidine triphosphate (TTP) detection region and a 5′ 6-[…] (FAM)-labeled probe binding region that incorporates a black hole quenching moiety. During the reaction, the probe and primer hybridize to the oligonucleotide template to form the template:primer:probe complex. When Taq polymerase binds to the primer in the TPP complex and dUTP is present, successful extension of the nascent strand occurs and the inherent 5′ to 3′ exonuclease activity of Taq polymerase cleaves and displaces the 6-FAM-labeled probe in a 5′ to 3′ direction, releasing the 6-FAM fluorophore from its proximity to the […]. This displacement effectively disrupts the Förster resonance energy transfer (FRET) and the resulting fluorescence detected upon excitation is directly proportional to the amount of the dUTP available in the assay for incorporation. […]

| SMILES | % relative inhibition vs. positive control [%] | also measured |
| --- | --- | --- |
| CC[C@@](O)(CNS(=O)(=O)C/C=C/CC1CCC(=O)NC1=O)c1ccc(F)c(OCC2CC2)c1 (stereo partly drawn) [Example 89, (E)-N—((S)-2-(3-(cyclopropylmethoxy)-4-fluorophenyl)-2-hydroxybutyl)-4-(2,6-dioxopiperidin-3-yl)but-2-ene-1-sulfonamide] | 65 | – |
| CC(C)(NS(=O)(=O)CC/C=C/CC1CCC(=O)NC1=O)c1ccc(F)c(OCC2CC2)c1 (stereo not shown) [Example 79, (E)-N-(2-(3-(cyclopropylmethoxy)-4-fluorophenyl)propan-2-yl)-5-(2,6-dioxopiperidin-3-yl)pent-3-ene-1-sulfonamide] | 70 | – |
| CC(C)(NS(=O)(=O)CCCCCC1CCC(=O)NC1=O)c1ccc(F)c(OCC2CC2)c1 (single isomer, unassigned) [Example 81 isomer 2, N-(2-(3-(cyclopropylmethoxy)-4-fluorophenyl)propan-2-yl)-5-(2,6-dioxopiperidin-3-yl)pentane-1-sulfonamide] | – | % relative inhibition vs. positive control (listed as 81 isomer 2): 41% |
| CC(C)(NS(=O)(=O)CC/C=C/CC1CCC(=O)NC1=O)c1cccc(OCC2CC2)c1 (stereo not shown) [Example 84, (E)-N-(2-(3-(cyclopropylmethoxy)phenyl)propan-2-yl)-5-(2,6-dioxopiperidin-3-yl)pent-3-ene-1-sulfonamide] | 22 | – |
| CC(C)(NS(=O)(=O)CCCCCNC1CCC(=O)NC1=O)c1ccc(F)c(OCC2CC2)c1 (stereo not shown) [Example 85, N-(2-(3-(cyclopropylmethoxy)-4-fluorophenyl)propan-2-yl)-5-((2,6-dioxopiperidin-3-yl)amino)pentane-1-sulfonamide] | 11 | – |
| CC[C@@H](NS(=O)(=O)CC/C=C/CC1CCC(=O)NC1=O)c1ccc(F)c(OCC2CC2)c1 (single isomer, unassigned) [Example 88 trans isomer 2] | – | % relative inhibition vs. positive control (listed as 88 trans isomer 2): 167% |
| CC[C@@H](NS(=O)(=O)CC/C=C/CC1CCC(=O)NC1=O)c1ccc(F)c(OCC2CC2)c1 (stereo partly drawn) [Example 88, (E)-N—((R)-1-(3-(cyclopropylmethoxy)-4-fluorophenyl)propyl)-5-(2,6-dioxopiperidin-3-yl)pent-3-ene-1-sulfonamide] | 80 | – |
| CC[C@@](O)(CNS(=O)(=O)CCCCC1CCC(=O)NC1=O)c1ccc(F)c(OCC2CC2)c1 (stereo partly drawn) [Example 90, N—((S)-2-(3-(cyclopropylmethoxy)-4-fluorophenyl)-2-hydroxybutyl)-4-(2,6-dioxopiperidin-3-yl)butane-1-sulfonamide] | 82 | – |
| CC(C)(NS(=O)(=O)CCCCCC1CCC(=O)NC1=O)c1ccc(F)c(OCC2CC2)c1 (stereo not shown) [Example 81, N-(2-(3-(cyclopropylmethoxy)-4-fluorophenyl)propan-2-yl)-5-(2,6-dioxopiperidin-3-yl)pentane-1-sulfonamide] | 49 | – |
| CC(C)(NS(=O)(=O)CC/C=C/CC1CCC(=O)NC1=O)c1ccc(F)c(OCC2CC2)c1 (single isomer, unassigned) [Example 79 trans isomer 2, (E)-N-(2-(3-(cyclopropylmethoxy)-4-fluorophenyl)propan-2-yl)-5-(2,6-dioxopiperidin-3-yl)pent-3-ene-1-sulfonamide] | – | % relative inhibition vs. positive control (listed as 79 trans isomer 2): 51% |
| CC[C@@H](NS(=O)(=O)CCCCCC1CCC(=O)NC1=O)c1ccc(F)c(OCC2CC2)c1 (stereo partly drawn) [Example 91, N—((R)-1-(3-(cyclopropylmethoxy)-4-fluorophenyl)propyl)-5-(2,6-dioxopiperidin-3-yl)pentane-1-sulfonamide] | 10 | – |
| CC(C)(NS(=O)(=O)CCCCCC1CCC(=O)NC1=O)c1ccc(F)c(OCC2CC2)c1 (single isomer, unassigned) [Example 81 isomer 1, N-(2-(3-(cyclopropylmethoxy)-4-fluorophenyl)propan-2-yl)-5-(2,6-dioxopiperidin-3-yl)pentane-1-sulfonamide] | – | % relative inhibition vs. positive control (listed as 81 isomer 1): 16% |
| CC(C)(NS(=O)(=O)C/C=C/CCC1CCC(=O)NC1=O)c1ccc(F)c(OCC2CC2)c1 (stereo not shown) [Example 87, (E)-N-(2-(3-(cyclopropylmethoxy)-4-fluorophenyl)propan-2-yl)-5-(2,6-dioxopiperidin-3-yl)pent-2-ene-1-sulfonamide] | 26 | – |
| CC(C)(O)COc1cc(C2(NS(=O)(=O)CC/C=C/CN3CCC(=O)NC3=O)CC2)ccc1F [Example 92, (E)-5-(2,4-dioxotetrahydropyrimidin-1(2H)-yl)-N-(1-(4-fluoro-3-(2-hydroxy-2-methylpropoxy)phenyl)cyclopropyl)pent-3-ene-1-sulfonamide] | 81 | – |
| CC[C@@H](NS(=O)(=O)CC/C=C/CC1CCC(=O)NC1=O)c1ccc(F)c(OCC2CC2)c1 (single isomer, unassigned) [Example 88 trans isomer 1] | – | % relative inhibition vs. positive control (listed as 88 trans isomer 1): 10% |
| CC(C)(NS(=O)(=O)C/C=C/CC1CCC(=O)NC1=O)c1ccc(F)c(OCC2CC2)c1 (stereo not shown) [Example 82, (E)-N-(2-(3-(cyclopropylmethoxy)-4-fluorophenyl)propan-2-yl)-4-(2,6-dioxopiperidin-3-yl)but-2-ene-1-sulfonamide] | 26 | – |
| CC[C@@](O)(CNS(=O)(=O)CCCNC1CCC(=O)NC1=O)c1ccc(F)c(OCC2CC2)c1 (stereo partly drawn) [Example 86, N—((S)-2-(3-(cyclopropylmethoxy)-4-fluorophenyl)-2-hydroxybutyl)-3-((2,6-dioxopiperidin-3-yl)amino)propane-1-sulfonamide] | 6 | – |
| CC(C)(NS(=O)(=O)CC/C=C/CC1CCC(=O)NC1=O)c1ccc(F)c(OCC2CC2)c1 (single isomer, unassigned) [Example 79 trans isomer 1, (E)-N-(2-(3-(cyclopropylmethoxy)-4-fluorophenyl)propan-2-yl)-5-(2,6-dioxopiperidin-3-yl)pent-3-ene-1-sulfonamide] | – | % relative inhibition vs. positive control (listed as 79 trans isomer 1): 22% |
| CC(C)(NS(=O)(=O)CCC/C=C/CC1CCC(=O)NC1=O)c1ccc(F)c(OCC2CC2)c1 (stereo not shown) [Example 83, (E)-N-(2-(3-(cyclopropylmethoxy)-4-fluorophenyl)propan-2-yl)-6-(2,6-dioxopiperidin-3-yl)hex-4-ene-1-sulfonamide] | 45 | – |
